Measured values published in patent US6812028B1, “Embryogenesis and plant regeneration from microspores” (University of Guelph, priority 1999, dated 2004).

Tests used:
barley microspores = assay: Embryo induction and regeneration following pretreatment of barley genotypes; type: cell-based; settings: for % embryoid Regeneration: 500 embryos per plate; for Embryoids: average from 3 plates
Method: Embryogenesis from thirty different barley genotypes was conducted according to the procedure in accordance with the present invention. Between 10,000 to 15,000 embryos were usually produced per plate. Table 2 illustrates some counts of embryos based on an average of three replications (plates). Not all thirty genotypes were counted. However, response of each genotype was judged on the basis of the appearance of plates after two weeks and again after 4 to 5 weeks. Random samples of 500 embryos were taken from the counted plates and placed on regeneration media to estimate the embryo regeneration ability. […] FIG. 4 illustrates barley c.v. Igri embryo development at 3 weeks (FIG. 4(a)) and 5 weeks (FIG. 4(b)) on filter paper placed on solidified induction media.
Three different pre-treatments were compared within the genotype Igri and no apparent differences were observed relative to embryo induction or regeneration (Table 2). Lina normally responds well in microspore culture following a mannitol pre-treatment, but in this study using the combination of cold plus mannitol for 7 days, response was low. Thus, embryo formation was also counted in Lina when a 21 day cold pretreatment had been used and this response was more typical of Lina (Table 2). The regeneration response from the two pretreatment methods on Lina was similar. The frequency of fertile doubled haploids among the Lina progeny following the two pretreatments was not different, namely 79% after the combination 7-day treatment and 83% after the 21 day cold pretreatment.
Embryogenesis was visually assessed in barley winter genotypes; OAC Elmira, GBC776, GBC779, GBC780 and GBC781, and spring genotypes, Trinity, Cooper, Golden Promise, Disa, Morex, Excel, Elrose, Bruce, Rodeo, H936 and Sabarilis. […] Under these conditions about 2,000 plants per 10^5 microspores, or about 200 plants per spike on responsive genotypes has been observed.

[1] = system: barley genotype Igri microspores; assay: Effect of duration of pretreatment on embryo formation; type: cell-based
Method: The effect of the duration of pre-treatment on embryogenesis from barley genotype Igri for spikes incubated with 0.3 mol/L mannitol at 4° C. Table 3 illustrates that as few as 4 days of pre-treatment drastically effects the number of embryos formed from microspores. Although the number formed increases up to 28 days of pre-treatment, only a 4 day period is required to achieve beneficial effects. […] However, duration of pre-treatment did appear to effect Oxbow as previously mentioned, and as illustrated in Table 2.

[2] = GBC 777, pretreatment 4 d 0.3M man. 4° C.
[3] = GBC 778, pretreatment 4 d 3.3M man. 4° C.
[4] = Harrington, pretreatment 3 d 0.3M man. 4° C.
[5] = Igri, pretreatment 4 d 0.3M man. 4° C.
[6] = Igri, pretreatment 4 d 0.3M man. 25° C.
[7] = Lina, pretreatment 7 d 0.3M man 4° C.
[8] = Manley, pretreatment 4 d 0.3M man. 4° C.
[9] = Oxbow, pretreatment 21 d 0.3M man. 4° C.
[10] = cold plus mannitol pre-treatment 3 to 4 days, 0.3 mol/liter mannitol at 4° C., responsive genotypes

In the case of `OC[C@@H](O)[C@@H](O)[C@H](O)[C@H](O)CO` [mannitol], the “% embryoid Regeneration” value (barley microspores; [2]) is reported as 89%, the Embryoids (barley microspores; [2]) is reported as 14133 and the “% embryoid Regeneration” value (barley microspores; [3]) is reported as 84%. The Embryoids (barley microspores; [3]) was 7667, the Embryoids (barley microspores; GBC 782, pretreatment 3 d 0.3M man. 4° C.) was 14496 and the Embryoids (barley microspores; GBC 783, pretreatment 3 d 0.3M man. 4° C.) was 11360. The “% embryoid Regeneration” value (barley microspores; [4]) was 36%, the Embryoids (barley microspores; [4]) was 5533 and the “% embryoid Regeneration” value (barley microspores; [5]) was 97%. For the same compound, the Embryoids (barley microspores; [5]) was 12380, the “% embryoid Regeneration” value (barley microspores; [6]) was 88% and the Embryoids (barley microspores; [6]) was 13504. For the same compound, the “frequency of fertile doubled haploids among the Lina progeny” value (barley microspores; Lina, combination of cold plus mannitol for 7 days) was 79%, the “% embryoid Regeneration” value (barley microspores; [7]) was 81% and the Embryoids (barley microspores; [7]) was 8921. The “% embryoid Regeneration” value (barley microspores; [8]) was 74%, the Embryoids (barley microspores; [8]) was 11360 and the “% embryoid Regeneration” value (barley microspores; [9]) was 58%. For the same compound, the Embryoids (barley microspores; [9]) was 10810, the “plants per 10^5 microspores” value (barley microspores; [10]) was “about 2,000 plants per 10^5 microspores” and the plants per spike (barley microspores; [10]) was “about 200 plants per spike”. For the same compound, the “# Embryos formed” value ([1]; 4 d pretreatment of spikes at 4° C. in 0.3 mol/liter mannitol) was 9579, the “# Embryos formed” value ([1]; 7 d pretreatment of spikes at 4° C. in 0.3 mol/liter mannitol) was 9693 and the “# Embryos formed” value ([1]; 14 d pretreatment of spikes at 4° C. in 0.3 mol/liter mannitol) was 8981. For the same compound, the “# Embryos formed” value ([1]; 21 d pretreatment of spikes at 4° C. in 0.3 mol/liter mannitol) was 9692 and the “# Embryos formed” value ([1]; 28 d pretreatment of spikes at 4° C. in 0.3 mol/liter mannitol) was 10213.
